In patent US20100267561A1, “HERBICIDAL PYRIDAZINONE DERIVATIVES” (priority 2007, published 2010):

Tests used:
Assay type in all cases: in vivo
[1] = test system: wheat (Triticum aestivum); assay: Test A pre-/postemergence plant response
Summary of the method: (§1)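 Seeds in loam soil/sand blend treated preemergence by directed soil spray, with simultaneous postemergence spray on 2–10 cm plants at one- to two-leaf stage; compounds in non-phytotoxic solvent with surfactant. Injury visually rated versus untreated controls after about 10 days in greenhouse, 0 (no effect) to 100 (complete control).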

[2] = test system: velvetleaf (Abutilon theophrasti); assay: Test A pre-/postemergence plant response
Summary of the method: as §1

[3] = test system: large crabgrass (Digitaria sanguinalis); assay: Test A pre-/postemergence plant response
Summary of the method: as §1

[4] = test system: barnyardgrass (Echinochloa crus-galli); assay: Test A pre-/postemergence plant response
Summary of the method: as §1

[5] = test system: giant foxtail (Setaria faberi); assay: Test A pre-/postemergence plant response
Summary of the method: as §1

[6] = test system: pigweed (Amaranthus retroflexus); assay: Test A pre-/postemergence plant response
Summary of the method: as §1

[7] = test system: corn (Zea mays); assay: Test A pre-/postemergence plant response
Summary of the method: as §1

[8] = test system: morningglory (Ipomoea coccinea); assay: Test A pre-/postemergence plant response
Summary of the method: as §1

[9] = test system: barnyardgrass (Echinochloa crus-galli); assay: Test B flooded paddy test plant response
Summary of the method: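 Compounds were added directly to paddy water over 2-leaf-stage plants in pots flooded 3 cm above soil, water depth maintained. Visual injury scored against controls after 13 to 15 days in greenhouse, 0 (none) to 100 (complete control); dash indicates no result.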

[10] = test system: eastern black (E.B.) nightshade (Solanum ptycanthum); assay: Test B pre-/postemergence plant response; conditions: Preemergence; for Nightshade, E. B. plant response rating: 8 g ai/ha
Summary of the method: (§2)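 Preemergence and postemergence (plants 2-18 cm, 1- to 4-leaf stage) applications used test chemicals in a non-phytotoxic solvent with surfactant. Plants were held in a greenhouse 13 to 15 days, then rated visually against controls on a 0-100 scale (0 no effect, 100 complete control).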

[11] = test system: green foxtail (Setaria viridis); assay: Test B pre-/postemergence plant response; conditions: for Foxtail, Green plant response rating: 8 g ai/ha
Summary of the method: as §2

[12] = Postemergence, 31 g ai/ha, 0 to 100 scale (0 no effect, 100 complete control)
[13] = Postemergence, 125 g ai/ha, 0 to 100 scale, 0 no effect, 100 complete control
[14] = Preemergence, 31 g ai/ha, 0 to 100 scale, 0 is no effect, 100 is complete control
[15] = Preemergence, 125 g ai/ha, 0 to 100 scale (0 no effect, 100 complete control)
[16] = Flood (flooded paddy test), 62 g ai/ha, scale 0 to 100, 0 no effect, 100 complete control
[17] = Flood (flooded paddy test), 125 g ai/ha, scale 0 to 100, 0 no effect, 100 complete control
[18] = Flood (flooded paddy test), 250 g ai/ha, scale 0 to 100, 0 no effect, 100 complete control
[19] = Flood, 31 g ai/ha, scale 0 to 100
[20] = 16 g ai/ha, scale 0 to 100 (0 no effect, 100 complete control)
[21] = 31 g ai/ha, 0 to 100 scale, 0 no effect, 100 complete control
[22] = Postemergence, 16 g ai/ha, scale 0 to 100
[23] = Postemergence, 31 g ai/ha, scale 0 to 100, 0 no effect, 100 complete control
[24] = Postemergence, 62 g ai/ha, scale 0 to 100, 0 no effect, 100 complete control
[25] = Preemergence, 16 g ai/ha, scale 0 to 100 (0 no effect, 100 complete control)
[26] = Preemergence, 31 g ai/ha, 0 to 100 scale, 0 no effect, 100 complete control
[27] = Preemergence, 62 g ai/ha, scale 0 to 100

SMILES: Cc1cc(-c2ccc(Cl)cc2)nn1-c1c(OC(=O)C(C)C)cnn(C)c1=O [Compound 34]
- Plant response rating, Wheat [1, 12]: 40
- Plant response rating, Wheat [1, 13]: 60
- Plant response rating, Wheat [1, 14]: 30
- Plant response rating, Wheat [1, 15]: 70
- Plant response rating, Velvetleaf [2, 12]: 0
- Plant response rating, Velvetleaf [2, 13]: 0
- Plant response rating, Velvetleaf [2, 14]: 0
- Plant response rating, Velvetleaf [2, 15]: 0
- Plant response rating, Crabgrass, Large [3, 12]: 70
- Plant response rating, Crabgrass, Large [3, 13]: 100
- Plant response rating, Crabgrass, Large [3, 14]: 80
- Plant response rating, Crabgrass, Large [3, 15]: 90
- Plant response rating, Barnyardgrass [4, 12]: 90
- Plant response rating, Barnyardgrass [4, 13]: 100
- Plant response rating, Barnyardgrass [4, 14]: 70
- Plant response rating, Barnyardgrass [4, 15]: 100
- Plant response rating, Foxtail, Giant [5, 12]: 90
- Plant response rating, Foxtail, Giant [5, 13]: 100
- Plant response rating, Foxtail, Giant [5, 14]: 100
- Plant response rating, Foxtail, Giant [5, 15]: 100
- Plant response rating, Pigweed [6, 12]: 0
- Plant response rating, Pigweed [6, 13]: 10
- Plant response rating, Pigweed [6, 14]: 0
- Plant response rating, Pigweed [6, 15]: 0
- Plant response rating, Corn [7, 12]: 70
- Plant response rating, Corn [7, 13]: 90
- Plant response rating, Corn [7, 14]: 20
- Plant response rating, Corn [7, 15]: 60
- Plant response rating, Morningglory [8, 12]: 0
- Plant response rating, Morningglory [8, 13]: 0
- Plant response rating, Morningglory [8, 14]: 0
- Plant response rating, Morningglory [8, 15]: 0
- Plant response rating, Barnyardgrass [9, 16]: 50
- Plant response rating, Barnyardgrass [9, 17]: 100
- Plant response rating, Barnyardgrass [9, 18]: 100
- Plant response rating, Barnyardgrass [9, 19]: 40
- Plant response rating, Nightshade, E. B. [10, 20]: 0
- Plant response rating, Nightshade, E. B. [10, 21]: 0
- Plant response rating, Nightshade, E. B. ([10]; 62 g ai/ha, scale 0 to 100): 0
- Nightshade, E. B. plant response rating ([10]; scale 0 to 100): 0
- Foxtail, Green plant response rating ([11]; postemergence, 0-100 scale): 60
- Plant response rating, Foxtail, Green [11, 22]: 90
- Plant response rating, Foxtail, Green [11, 23]: 100
- Plant response rating, Foxtail, Green [11, 24]: 100
- Plant response rating, Foxtail, Green [11, 25]: 100
- Plant response rating, Foxtail, Green [11, 26]: 100
- Plant response rating, Foxtail, Green [11, 27]: 100
- Foxtail, Green plant response rating ([11]; Preemergence, scale 0 to 100): 100

SMILES: Cc1cc(-c2ccc(Cl)cc2)nn1-c1c(OS(C)(=O)=O)cnn(C)c1=O [Compound 36]
- Plant response rating, Wheat [1, 12]: 0
- Plant response rating, Wheat [1, 13]: 60
- Plant response rating, Wheat [1, 14]: 50
- Plant response rating, Wheat [1, 15]: 90
- Plant response rating, Velvetleaf [2, 12]: 0
- Plant response rating, Velvetleaf [2, 13]: 0
- Plant response rating, Velvetleaf [2, 14]: 0
- Plant response rating, Velvetleaf [2, 15]: 0
- Plant response rating, Crabgrass, Large [3, 12]: 80
- Plant response rating, Crabgrass, Large [3, 13]: 90
- Plant response rating, Crabgrass, Large [3, 14]: 70
- Plant response rating, Crabgrass, Large [3, 15]: 100
- Plant response rating, Barnyardgrass [4, 12]: 80
- Plant response rating, Barnyardgrass [4, 13]: 100
- Plant response rating, Barnyardgrass [4, 14]: 90
- Plant response rating, Barnyardgrass [4, 15]: 100
- Plant response rating, Foxtail, Giant [5, 12]: 90
- Plant response rating, Foxtail, Giant [5, 13]: 90
- Plant response rating, Foxtail, Giant [5, 14]: 100
- Plant response rating, Foxtail, Giant [5, 15]: 100
- Plant response rating, Pigweed [6, 12]: 0
- Plant response rating, Pigweed [6, 13]: 10
- Plant response rating, Pigweed [6, 14]: 0
- Plant response rating, Pigweed [6, 15]: 30
- Plant response rating, Corn [7, 12]: 50
- Plant response rating, Corn [7, 13]: 80
- Plant response rating, Corn [7, 14]: 50
- Plant response rating, Corn [7, 15]: 80
- Plant response rating, Morningglory [8, 13]: 0
- Plant response rating, Morningglory [8, 14]: 0
- Plant response rating, Morningglory [8, 15]: 0
- Plant response rating, Barnyardgrass [9, 16]: 0
- Plant response rating, Barnyardgrass [9, 17]: 0
- Plant response rating, Barnyardgrass [9, 18]: 0
- Plant response rating, Barnyardgrass [9, 19]: 0
- Plant response rating, Nightshade, E. B. [10, 20]: 0
- Plant response rating, Nightshade, E. B. [10, 21]: 0
- Plant response rating, Nightshade, E. B. ([10]; 62 g ai/ha, scale 0 to 100): 0
- Nightshade, E. B. plant response rating ([10]; scale 0 to 100): 0
- Foxtail, Green plant response rating ([11]; postemergence, 0-100 scale): 0
- Plant response rating, Foxtail, Green [11, 22]: 50
- Plant response rating, Foxtail, Green [11, 23]: 60
- Plant response rating, Foxtail, Green [11, 24]: 70
- Plant response rating, Foxtail, Green [11, 25]: 100
- Plant response rating, Foxtail, Green [11, 26]: 100
- Plant response rating, Foxtail, Green [11, 27]: 100
- Foxtail, Green plant response rating ([11]; Preemergence, scale 0 to 100): 50
